# Data taken from US11793782B2, “Therapeutic agents for neurodegenerative diseases” (priority 2017, dated 2023).
# Tests used:
# Npc1−/− and Npc1+/+ mice [1] = experiment: Gait analysis (CatWalk), NPC mouse study; format: in vivo; settings: 0.1 g/kg from weaning, eight weeks of age
# Description: Separate groups of Npc1^−/− and Npc1^+/+ mice were left untreated, as controls. Gait analysis was performed on mice at eight weeks of age using a CatWalk®15.0 system according to manufacturer's instructions (Noldus, Nottingham, UK). Five runs were recorded per animal. CatWalk® parameters measured were: • 1. Stand Mean: average duration (s) of paws in contact with glass plate; • 2. Step Cycle: duration (s) between two consecutive contacts of the same paw; • 3. Duty Cycle: percentage of time paws in contact with plate compared with time to complete a step cycle; • 4. Step Sequence (AB): percentage of time spent walking in LF-RH-RF-LH alternating pattern (LF: left front; RH: right hind; RF: right front; LH left hind); • 5. Cadence: step per seconds in a trial; • 6. Diagonal Support: percentage of time with simultaneous contact of diagonal paws with the glass plate (RF&LH or RH&LF). Motor Function Analysis
# [2] = test system: Lewy Body dementia patient; experiment: Case study, Lewy Body dementia; format: in vivo, human
# Description: The patient started taking acetyl-leucine (3 g/day for one week; 5 g/day thereafter) and was evaluated after four weeks. […] Medication was reduced to 3 g/day, and the patient was instructed to stop medication about two weeks later.
# [3] = test system: Niemann-Pick A (NPA) patient fibroblasts; experiment: Lysosomal volume via LysoTracker, NPA fibroblasts; format: cell-based, human; settings: 1 mM, 6 days
# [4] = test system: downbeat nystagmus patients; experiment: Case studies, downbeat nystagmus patients; format: in vivo, human
# From the text: The patient was diagnosed with downbeat nystagmus: the patient was severely impaired by blurred vision (oscillopsia) due to the nystagmus, and experienced difficulties while reading and writing. The patient's visual acuity was: right 0.75, left 0.67, binocular 0.83, and the downbeat nystagmus was documented by video-oculography. […] The patient could partially suppress the nystagmus by visual fixation, as evaluated using a target center (dot presented in the center of a display for 30 seconds, FIG. 13A) and in complete darkness using goggles covered with special glasses for 45 seconds (FIG. 13B). The results (median of slow phase velocity, SPV) were as follows: Target Center-horizontal: −0.02°/s, vertical: 2.41°/s; Complete Darkness-horizontal: 0.05°/s, vertical: 3.27°/s (FIG. 13C).
# Npc1−/− and Npc1+/+ mice [5] = experiment: Motor function analysis (Open Field Activity Monitor), NPC mouse study; format: in vivo; settings: 0.1 g/kg from weaning, nine weeks of age
# Description: Separate groups of Npc1^−/− and Npc1^+/+ mice were left untreated, as controls. Motor function analysis was performed on mice at eight and nine weeks of age using an Open Field Activity Monitor according to manufacturer's instructions (Linton Instruments, Amlogger Software). Each mouse was placed in a plastic cage with bedding and analysed for five minutes. Rears were counted manually. Motor function parameters measured were: • 1. Centre Rearing: mice rearing on hind legs unsupported; • 2. Rearing: mice rearing on hind legs with and without the support of cage walls; • 3. Activity: regular movement of the animal including walks; • 4. Front to Back (FR) count: movement of the animal from front to back of the cage; • 5. Active Time: duration (s/min) of activeness regardless of movement; • 6. Mobile Time: duration (s/min) of mobility; • 7. Rearing Time: duration of any rearing. Results Coat Condition
# [6] = test system: Mucopolysaccharidosis Type IIIB (MPS IIIB) patient fibroblasts; experiment: Lysosomal volume via LysoTracker, MPS IIIB fibroblasts; format: cell-based, human; settings: 1 mM, 6 days
# [7] = test system: amyloid precursor protein C-terminal fragments (APP-CTFs); experiment: APP-CTF levels in cerebellum of NPC1−/− mice; format: in vivo, mouse; settings: 0.1 g/kg body weight daily from 3 weeks of age, sacrificed at 8 weeks
# Description: The Niemann-Pick Disease Type C (NPC) mouse model shares a number of pathological features with Alzheimer's disease (AD) as described herein. […] Mice were sacrificed at 8 weeks of age. Levels of amyloid precursor protein C-terminal fragments (APP-CTFs) were evaluated relative to total amyloid precursor protein (APP) levels in the cerebellum for wild type, untreated wild type NPC1^−/− mice, and AL-treated wild type NPC1^−/− mice. Levels of microtubule-associated protein 1A/1B-light chain 3-phosphatidylethanolamine conjugate (LC3-II) were also evaluated relative to levels of tubulin loading control for wild type, untreated wild type NPC1^−/− mice, and AL-treated wild type NPC1^−/− mice.
# [8] = test system: Tay-Sachs disease patient fibroblasts; experiment: Glycosphingolipid (GSL) levels by HPLC, Tay-Sachs fibroblasts; format: cell-based, human; settings: 1 mM for 6 days, p<0.05
# [9] = test system: corticobasal syndrome patient; experiment: Case study, corticobasal syndrome; format: in vivo, human
# Description: Gait analysis was performed before treatment commenced.
# [10] = test system: fibroblast cell line from an NPC patient; experiment: Relative lysosomal volume via LysoTracker, NPC fibroblasts; format: cell-based, human; settings: 1 mM
# Description: A fibroblast cell line from an NPC patient was treated for 3 days with N-acetyl-DL-leucine (1 mM) and relative lysosomal volume was quantified via LysoTracker, a fluorescent dye that accumulates in acidic organelles. Increased LysoTracker fluorescence is indicative of an increase in lysosomal size and/or number, and is a hallmark of NPC cells.
# Npc1−/− mouse = experiment: Lifespan and symptom onset of Npc1−/− mouse; format: in vivo
# From the text: Separate groups of Npc1^−/− and Npc1^+/+ mice were left untreated, as controls.
# [11] = after 1 week on acetyl-DL-leucine
# [12] = after 4 weeks on acetyl-DL-leucine
# [13] = downbeat nystagmus Patient 1, approximately 14 weeks after starting
# [14] = downbeat nystagmus Patient 2, on treatment, Complete Darkness
# [15] = downbeat nystagmus Patient 2, on treatment, Target Center
structure (smiles),measurement,setting,value
CC(=O)NC(CC(C)C)C(=O)O (racemic) [acetyl-DL-leucine],Gait vs untreated littermates,Npc1−/− and Npc1+/+ mice [1],significantly improved gait
same,Patient report,"[2]; 5 g/day, after four weeks",increased fatigue and a deterioration of balance and speech
same,Coefficient of variation (temporal),[2]; [11],9.1
same,Double stance,[2]; [11],36.1%
same,Max. speed,[2]; [11],92 cm/s
same,Step cycle length,[2]; [11],81 cm
same,Track width,[2]; [11],4.6 cm
same,cadence,[2]; [11],81 steps/minute
same,speed,[2]; [11],55 cm/s
same,Coefficient of variation (temporal),[2]; [12],8.8
same,Double stance,[2]; [12],38.7%
same,Functional Gait Assessment,[2]; [12],11/30
same,Max. speed,[2]; [12],74 cm/s
same,Step cycle length,[2]; [12],79 cm
same,Track width,[2]; [12],6.7 cm
same,cadence,[2]; [12],85 steps/minute
same,speed,[2]; [12],56 cm/s
same,Patient report,"[2]; decreased dose 3 g/day, re-evaluated about one month after ceasing",did not report improvement of symptomatology
same,LysoTracker fluorescence relative to untreated disease fibroblasts,[3],statistically significant reduction in LysoTracker fluorescence
same,Effect of temporary suspension of the medication,[4]; downbeat nystagmus Patient 1,considerable deterioration
same,Patient-reported benefit,"[4]; downbeat nystagmus Patient 1, 5 gram per day, after 10 days",significant benefit
same,Nystagmus (clinical examination),[4]; [13],reduction of the nystagmus
same,Posturography,[4]; [13],reduction of postural sway
same,"Visual acuity, left","[4]; downbeat nystagmus Patient 1, approximately 14 weeks after starting, before 0.67",1.0
same,"Visual acuity, right","[4]; downbeat nystagmus Patient 1, approximately 14 weeks after starting, before 0.75",0.83
same,"Visual acuity, binocular","[4]; downbeat nystagmus Patient 1, approximately 14 weeks after starting, before 0.83",1
same,Side-effects,"[4]; downbeat nystagmus Patient 1, continued treatment at 5 gram per day",no side-effects
same,Clinical observation,"[4]; downbeat nystagmus Patient 2, 5 g/day",improvement of gait
same,"Median of slow phase velocity (SPV), horizontal",[4]; [14],0.05 °/s
same,"Median of slow phase velocity (SPV), vertical",[4]; [14],3.27 °/s
same,"Median of slow phase velocity (SPV), horizontal",[4]; [15],−0.02 °/s
same,"Median of slow phase velocity (SPV), vertical",[4]; [15],2.41 °/s
same,Maximal gait velocity,"[4]; downbeat nystagmus Patient 2, on treatment, increase from 122",155 cm/s
same,Motor function vs untreated littermates,Npc1−/− and Npc1+/+ mice [5],significantly improved motor function
same,LysoTracker fluorescence relative to untreated disease fibroblasts,[6],statistically significant reduction in LysoTracker fluorescence
same,APP-CTF levels relative to total APP in the cerebellum,[7],lowering of APP-CTFs
same,GSL storage (decrease),[8],statistically significant
same,Clinical observation,"[9]; 5 g per day, after 20 days",improvement of dizziness symptoms and significant reduction in the frequency of falls
same,Coefficient of variation (temporal),"[9]; after 20 days of treatment, before 3.9",3.4
same,Track width,"[9]; after 20 days of treatment, before 12.1",12.3 cm
same,Functional Gait Assessment,"[9]; after 20 days of treatment, before 13/30",18/30
same,Double stance,"[9]; after 20 days of treatment, before 29.8",26.6%
same,speed,"[9]; after 20 days of treatment, before 63",92 cm/s
same,Step cycle length,"[9]; after 20 days of treatment, before 84",104 cm
same,cadence,"[9]; after 20 days of treatment, before 90",106 steps/minute
same,Max. speed,"[9]; after 20 days of treatment, before 131",152 cm/s
same,Symptoms after suspension of treatment,"[9]; two days after suspension, after 8 weeks of treatment",increase of dizziness symptoms
same,LysoTracker fluorescence (lysosomal volume),[10]; fibroblasts from NPC patient of mild clinical severity,significant decrease in LysoTracker fluorescence
same,LysoTracker fluorescence (lysosomal volume),"[10]; fibroblasts from additional NPC patients of variable clinical severity, 72 hours",replicated
same,Delay of discernible indication of disease vs untreated Npc1−/− mice,Npc1−/− mouse; Npc1−/− mice treated from weaning,two
same,Lifespan,"Npc1−/− mouse; Npc1−/− mouse, 0.1 g/kg from 3 weeks of age",statistically significant increase in lifespan
